Measurements published in patent publication US9365541B2, “Compounds for use in the treatment of parasitic diseases” (IRBM—SCIENCE PARK S.P.A., priority 2012, dated 2016).

What was measured:
human HDAC1 = biological target: T1, human HDAC1 (Homo sapiens, UniProt Q13547); experiment: Homo sapiens HDAC1 inhibition assay (Fluor-de-Lys, enzymatic); type: biochemical; conditions: human HDAC enzymatic assay; read-out: hHDAC IC50
T1 construct: made in house; host or cells: HeLa (ATCC CCL-2), mammalian cells
How it was run: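 Fluorogenic deacetylation read-out: trypsin developer, supplemented with 2 μM final TSA as stop, releases fluorophore from deacetylated substrate.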

[1] = tested on: Plasmodium falciparum 3D7; experiment: P. falciparum growth inhibition assay (Pf-LDH); type: cell-based; conditions: Plasmodium falciparum, Erythrocyte; P. falciparum 3D7 infected erythrocytes, 72 h incubation, PfLDH readout
How it was run: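 Compounds were tested against 72 h cultures of the 3D7 strain (0.25% parasitemia, 2% hematocrit, 37° C, low-oxygen gas). Parasite growth was quantified as lactate dehydrogenase activity via NBT reduction, absorbance 650 nm, after freezing and thawing.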

T1 sequence (Q13547 whole entry): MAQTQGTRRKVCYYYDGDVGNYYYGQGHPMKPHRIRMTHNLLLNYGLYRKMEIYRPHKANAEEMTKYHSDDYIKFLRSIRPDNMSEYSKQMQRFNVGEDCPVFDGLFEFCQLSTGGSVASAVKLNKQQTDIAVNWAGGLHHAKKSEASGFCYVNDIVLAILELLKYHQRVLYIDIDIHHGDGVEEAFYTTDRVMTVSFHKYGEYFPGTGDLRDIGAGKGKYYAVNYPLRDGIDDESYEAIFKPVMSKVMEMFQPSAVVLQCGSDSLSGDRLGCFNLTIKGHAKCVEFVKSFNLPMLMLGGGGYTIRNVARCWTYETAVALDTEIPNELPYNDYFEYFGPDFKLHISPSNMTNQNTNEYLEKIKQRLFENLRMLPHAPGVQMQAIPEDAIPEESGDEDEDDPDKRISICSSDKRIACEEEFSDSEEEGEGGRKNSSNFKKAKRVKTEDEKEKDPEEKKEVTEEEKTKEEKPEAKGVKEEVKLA

Row | SMILES | IC50 (human HDAC1) [µM] | EC50 [1] [µM]
1 | CNC(=O)CCCCC[C@H](NC(=O)C1CCN(C)CC1)c1ncc(-c2ccc3ccccc3c2)[nH]1 [Entry 5, (S)-1-methyl-N-(7-(methylamino)-1-(5-(naphthalen-2-yl)-1H-imidazol-2-yl)-7-oxo-heptyl)piperidine-4-carboxamide] | < 1 | 1 to 5
2 | CNC(=O)CCCCC[C@H](NC(=O)[C@H]1CCN(C)C1)c1ncc(-c2ccc3ccccc3c2)[nH]1 [Entry 4, (S)-1-methyl-N-((S)-7-(methylamino)-1-(5-(naphthalen-2-yl)-1H-imidazol-2-yl)-7-oxo-heptyl)pyrrolidine-3-carboxamide] | < 1 | 1 to 5
3 | CNC(=O)CCCCC[C@H](NC(=O)C12CCN(CC1)CC2)c1ncc(-c2ccc3cc(OC)ccc3c2)[nH]1 [Entry 153, (S)-N-(1-(5-(6-methoxynaphthalen-2-yl)-1H-imidazol-2-yl)-7-(methylamino)-7-oxo-heptyl)quinuclidine-4-carboxamide] | < 1 | < 1
4 | CNC(=O)CCCCC[C@H](NC(=O)CC1=CSC2=NCCCN12)c1ncc(-c2ccc(-c3ccn(C)n3)cc2)[nH]1 [Entry 92, (S)-7-(2-(6,7-dihydro-5H-thiazolo[3,2-a]pyrimidin-3-yl)acetamido)-N-methyl-7-(5-(4-(1-methyl-1H-pyrazol-3-yl)phenyl)-1H-imidazol-2-yl)heptanamide] | 1 to 5 | > 5
5 | CNC(=O)CCCCC[C@H](NC(=O)C1CC(=O)Nc2ccccc21)c1ncc(-c2ccc3ccccc3c2)[nH]1 (stereo partly drawn) [Entry 198, N-((S)-7-(methylamino)-1-(5-(naphthalen-2-yl)-1H-imidazol-2-yl)-7-oxoheptyl)-2-oxo-1,2,3,4-tetrahydroquinoline-4-carboxamide] | 1 to 5 | < 1
6 | CNC(=O)CCCCC[C@H](NC(=O)c1cncs1)c1ncc(-c2cc3ccccc3s2)[nH]1 [Entry 51, (S)-N-(1-(5-(benzo[b]thiophen-2-yl)-1H-imidazol-2-yl)-7-(methylamino)-7-oxoheptyl)thiazole-5-carboxamide] | 1 to 5 | 1 to 5
7 | CNC(=O)CCCCC[C@H](NC(=O)CCc1cnn(C)c1)c1ncc(-c2ccc3ccccc3c2)[nH]1 [Entry 199, (S)-N-methyl-7-(3-(1-methyl-1H-pyrazol-4-yl)propanamido)-7-(5-(naphthalen-2-yl)-1H-imidazol-2-yl)heptanamide] | < 1 | 1 to 5
8 | CNC(=O)CCCCC[C@H](NC(=O)CCn1cncn1)c1ncc(-c2cc3ccccc3nc2OC)[nH]1 [Entry 180, (S)-7-(3-(1H-1,2,4-triazol-1-yl)propanamido)-7-(5-(2-methoxyquinolin-3-yl)-1H-imidazol-2-yl)-N-methyl-heptanamide] | 1 to 5 | 1 to 5
9 | CNC(=O)CCCCC[C@H](NC(=O)c1cncs1)c1ncc(-c2ccc3ncccc3c2)[nH]1 [Entry 127, (S)-N-(7-(methylamino)-7-oxo-1-(5-(quinolin-6-yl)-1H-imidazol-2-yl)heptyl)thiazole-5-carboxamide] | 1 to 5 | < 1
10 | CCOc1cccc2cc(-c3cnc([C@H](CCCCCC(=O)NC)NC(=O)c4cncs4)[nH]3)ccc12 [Entry 25, (S)-N-(1-(5-(5-ethoxynaphthalen-2-yl)-1H-imidazol-2-yl)-7-(methylamino)-7-oxoheptyl)thiazole-5-carboxamide] | 1 to 5 | < 1
11 | CNC(=O)CCCCC[C@H](NC(=O)c1cc(C(C)(C)C)nn1C)c1ncc(-c2ccc(-c3ccn(C)n3)cc2)[nH]1 [Entry 217, (S)-3-(tert-butyl)-1-methyl-N-(1-(5-(4-(1-methyl-1H-pyrazol-3-yl)phenyl)-1H-imidazol-2-yl)-7-(methylamino)-7-oxoheptyl)-1H-pyrazole-5-carboxamide] | 1 to 5 | 1 to 5
12 | CNC(=O)CCCCC[C@H](NC(=O)C12CCN(CC1)CC2)c1ncc(-c2ccc(Cl)c(C)c2)[nH]1 [Entry 181, (S)-N-(1-(5-(4-chloro-3-methylphenyl)-1H-imidazol-2-yl)-7-(methylamino)-7-oxo-heptyl)quinuclidine-4-carboxamide] | 1 to 5 | > 5
13 | CNC(=O)CCCCC[C@H](NC(=O)Cn1cnc2ccccc21)c1ncc(-c2ccc3ccccc3c2)[nH]1 [Entry 44, (S)-7-(2-(1H-benzo[d]imidazol-1-yl)acetamido)-N-methyl-7-(5-(naphthalen-2-yl)-1H-imidazol-2-yl)heptanamide] | < 1 | 1 to 5
14 | CNC(=O)CCCCC[C@H](NC(=O)C1(C)CCOCC1)c1ncc(-c2cc3ccccc3nc2OC)[nH]1 [Entry 133, (S)-N-(1-(5-(2-methoxyquinolin-3-yl)-1H-imidazol-2-yl)-7-(methylamino)-7-oxoheptyl)-4-methyltetrahydro-2H-pyran-4-carboxamide] | 1 to 5 | 1 to 5
15 | CNC(=O)CCCCC[C@H](NC(=O)c1csc(-c2cccnc2)n1)c1ncc(-c2ccc3ccccc3c2)[nH]1 [Entry 197, (S)-N-(7-(methylamino)-1-(5-(naphthalen-2-yl)-1H-imidazol-2-yl)-7-oxoheptyl)-2-(pyridin-3-yl)thiazole-4-carboxamide] | > 5 | 1 to 5
16 | CNC(=O)CCCCC[C@H](NC(=O)CCc1c(C)nc2ncnn2c1C)c1ncc(-c2ccc3ccncc3c2)[nH]1 [Entry 122] | < 1 | < 1
17 | CNC(=O)CCCCC[C@H](NC(=O)c1cscn1)c1ncc(-c2ccc3ccncc3c2)[nH]1 [Entry 47, (S)-N-(1-(5-(isoquinolin-7-yl)-1H-imidazol-2-yl)-7-(methylamino)-7-oxoheptyl)thiazole-4-carboxamide] | > 5 | 1 to 5
18 | CNC(=O)CCCCC[C@H](NC(=O)c1cnsc1)c1ncc(-c2ccc(-n3cccn3)cc2)[nH]1 [Entry 12, (S)-N-(1-(5-(4-(1H-pyrazol-1-yl)phenyl)-1H-imidazol-2-yl)-7-(methylamino)-7-oxoheptyl)isothiazole-4-carboxamide] | 1 to 5 | 1 to 5
19 | CNC(=O)CCCCC[C@H](NC(=O)Cn1ccnn1)c1ncc(-c2ccc(-n3cccn3)cc2)[nH]1 [Entry 62, (S)-7-(2-(1H-1,2,3-triazol-1-yl)acetamido)-7-(5-(4-(1H-pyrazol-1-yl)phenyl)-1H-imidazol-2-yl)-N-methylheptanamide] | > 5 | > 5
20 | CNC(=O)CCCCC[C@H](NC(=O)C(C)n1cccn1)c1ncc(-c2cc3ccccc3nc2OC)[nH]1 (stereo partly drawn) [Entry 103] | > 5 | 1 to 5
21 | CNC(=O)CCCCC[C@H](NC(=O)Cn1cc2ccccc2n1)c1ncc(-c2ccc3ccncc3c2)[nH]1 [Entry 208, (S)-7-(2-(2H-indazol-2-yl)acetamido)-7-(5-(isoquinolin-7-yl)-1H-imidazol-2-yl)-N-methyl-heptanamide] | < 1 | < 1
22 | CNC(=O)CCCCC[C@H](NC(=O)c1ccc(-n2cnnn2)cc1)c1ncc(-c2ccc3ccccc3c2)[nH]1 [Entry 117, (S)-N-(7-(methylamino)-1-(5-(naphthalen-2-yl)-1H-imidazol-2-yl)-7-oxoheptyl)-4-(1H-tetrazol-1-yl)benzamide] | 1 to 5 | 1 to 5
23 | CNC(=O)CCCCC[C@H](NC(=O)c1ccc(-n2cccc2)nc1)c1ncc(-c2ccc3ccccc3c2)[nH]1 [Entry 83, (S)-N-(7-(methylamino)-1-(5-(naphthalen-2-yl)-1H-imidazol-2-yl)-7-oxoheptyl)-6-(1H-pyrrol-1-yl)nicotinamide] | 1 to 5 | 1 to 5
24 | CNC(=O)CCCCC[C@H](NC(=O)Cn1c(=O)oc2ccccc21)c1ncc(-c2ccc3ccccc3c2)[nH]1 [Entry 74] | < 1 | 1 to 5
25 | CNC(=O)CCCCC[C@H](NC(=O)Cc1cnc2ccccn12)c1ncc(-c2ccc3ccncc3c2)[nH]1 [Entry 15, (S)-7-(2-(imidazo[1,2-a]pyridin-3-yl)acetamido)-7-(5-(isoquinolin-7-yl)-1H-imidazol-2-yl)-N-methylheptanamide] | < 1 | 1 to 5
26 | CNC(=O)CCCCC[C@H](NC(=O)CCc1nc2ccccc2s1)c1ncc(-c2ccc(-n3cccn3)cc2)[nH]1 [Entry 142, (S)-7-(5-(4-(1H-pyrazol-1-yl)phenyl)-1H-imidazol-2-yl)-7-(3-(benzo[d]thiazol-2-yl)propanamido)-N-methylheptanamide] | 1 to 5 | 1 to 5
27 | CNC(=O)CCCCC[C@H](NC(=O)c1cnc(C)s1)c1ncc(-c2ccc3ccncc3c2)[nH]1 [Entry 49, (S)-N-(1-(5-(isoquinolin-7-yl)-1H-imidazol-2-yl)-7-(methylamino)-7-oxoheptyl)-2-methylthiazole-5-carboxamide] | < 1 | < 1
28 | CNC(=O)CCCCC[C@H](NC(=O)c1cncs1)c1ncc(-c2ccn3ncnc3c2)[nH]1 [Entry 125, (S)-N-(1-(5-([1,2,4]triazolo[1,5-a]pyridin-7-yl)-1H-imidazol-2-yl)-7-(methylamino)-7-oxoheptyl)thiazole-5-carboxamide] | > 5 | > 5
29 | CNC(=O)CCCCC[C@H](NC(=O)c1cncs1)c1ncc(-c2ccc3ccccc3c2F)[nH]1 [Entry 137, (S)-N-(1-(5-(1-fluoronaphthalen-2-yl)-1H-imidazol-2-yl)-7-(methylamino)-7-oxoheptyl)thiazole-5-carboxamide] | > 5 | > 5
30 | CNC(=O)CCCCC[C@H](NC(=O)C12CCN(CC1)CC2)c1ncc(-c2cc3ccccc3nc2OC)[nH]1 [Entry 177, (S)-N-(1-(5-(2-methoxyquinolin-3-yl)-1H-imidazol-2-yl)-7-(methylamino)-7-oxo-heptyl)quinuclidine-4-carboxamide] | < 1 | < 1
